# Test results as given in ChEMBL document CHEMBL1201862, “PubChem BioAssay data set” (2004).
#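 Each compound was tested at five concentrations against cells in 96-well plates for 48 hours. GI50 marks 50% less growth.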 The source made the active and inactive calls. Cut-off read from the data, not from the text of the source: active = GI50 up to about 1.1 µM and inactive = higher.
# What was measured:
# Assay in all cases: growth of human tumour cells (NCI), 48 h
# [1] = tested on: NCI/ADR-RES
# [2] = tested on: HOP-62
# [3] = tested on: UACC-62
# [4] = tested on: UO-31
# [5] = tested on: SNB-75
# [6] = tested on: ACHN
# [7] = tested on: OVCAR-5
# [8] = tested on: TK-10
# [9] = tested on: HL-60
# [10] = tested on: NCI-H226
# [11] = tested on: MOLT-4
# [12] = tested on: HCC 2998
# [13] = tested on: SK-MEL-5
# [14] = tested on: M14
# [15] = tested on: DU-145
# [16] = tested on: Hs-578T
# [17] = tested on: CAKI-1
# [18] = tested on: 786-0
# [19] = tested on: NCI-H23
# [20] = tested on: HCT-15
Compound,GI50 [1],GI50 [2],GI50 [3],GI50 [4],GI50 [5],GI50 [6],GI50 [7],GI50 [8],GI50 [9],GI50 [10],GI50 [11],GI50 [12],GI50 [13],GI50 [14],GI50 [15],GI50 [16],GI50 [17],GI50 [18],GI50 [19],GI50 [20] [µM]
CCN1C(=O)C(C)S/C1=N\NC(=O)CSc1nc2ccccc2c(=O)n1CC (stereo not given),> 100 µM (inactive),> 100 µM (inactive),> 100 µM (inactive),72.9 µM (inactive),> 100 µM (inactive),> 100 µM (inactive),> 100 µM (inactive),> 100 µM (inactive),> 100 µM (inactive),> 100 µM (inactive),> 100 µM (inactive),> 100 µM (inactive),> 100 µM (inactive),> 100 µM (inactive),> 100 µM (inactive),> 100 µM (inactive),> 100 µM (inactive),> 100 µM (inactive),> 100 µM (inactive),> 100
Oc1cc(Br)cc2cccnc12,1.25 µM (inactive),5.31 µM (inactive),1.92 µM (inactive),1.5 µM (inactive),15.2 µM (inactive),2.63 µM (inactive),5.12 µM (inactive),31.5 µM (inactive),0.237 µM (active),8.41 µM (inactive),1.35 µM (inactive),28.2 µM (inactive),2.38 µM (inactive),1.37 µM (inactive),9.91 µM (inactive),1.7 µM (inactive),3.15 µM (inactive),9.51 µM (inactive),2.58 µM (inactive),0.697
c1ccc2sc(C3(N4CCCCC4)CCCC3)cc2c1,6.24 µM (inactive),15 µM (inactive),15.5 µM (inactive),16.9 µM (inactive),15.9 µM (inactive),8.65 µM (inactive),11 µM (inactive),13.6 µM (inactive),4.69 µM (inactive),1.79 µM (inactive),3.52 µM (inactive),3.85 µM (inactive),10.9 µM (inactive),15.1 µM (inactive),11.3 µM (inactive),14.1 µM (inactive),18.1 µM (inactive),9.93 µM (inactive),4.06 µM (inactive),5.92
CCOc1ccc(C2Oc3c(cccc3OC)C=C2[N+](=O)[O-])cc1OCC (stereo not given),3.15 µM (inactive),12.6 µM (inactive),5.32 µM (inactive),2.64 µM (inactive),13.8 µM (inactive),3.71 µM (inactive),9.59 µM (inactive),15.5 µM (inactive),2.14 µM (inactive),21.9 µM (inactive),4.22 µM (inactive),20.7 µM (inactive),4.8 µM (inactive),2.38 µM (inactive),14.6 µM (inactive),5.51 µM (inactive),2.94 µM (inactive),3.04 µM (inactive),6.67 µM (inactive),4.86
CC(C)(C)OC(=O)N/C=C1\C(=O)Oc2ccccc2C1=O,41.4 µM (inactive),17.1 µM (inactive),38.4 µM (inactive),0.082 µM (active),23.5 µM (inactive),20.2 µM (inactive),46.8 µM (inactive),14.6 µM (inactive),> 100 µM (inactive),20.7 µM (inactive),> 100 µM (inactive),54 µM (inactive),26.1 µM (inactive),35.6 µM (inactive),8.67 µM (inactive),13.9 µM (inactive),15 µM (inactive),34.6 µM (inactive),42.4 µM (inactive),11.3
CCOC(=O)C(=C(SC)SC)c1nn2c(=O)cc(C)nc2s1,36.5 µM (inactive),> 100 µM (inactive),21 µM (inactive),19.5 µM (inactive),31.4 µM (inactive),18.4 µM (inactive),28.4 µM (inactive),23.4 µM (inactive),17.4 µM (inactive),21.4 µM (inactive),17.7 µM (inactive),18.8 µM (inactive),22 µM (inactive),15.9 µM (inactive),16.5 µM (inactive),43.9 µM (inactive),24.6 µM (inactive),19.1 µM (inactive),32.9 µM (inactive),17.1
C#CCC(O)c1ccc(OC)c(OCc2ccccc2)c1 (stereo not given),82.2 µM (inactive),> 100 µM (inactive),> 100 µM (inactive),> 100 µM (inactive),27 µM (inactive),> 100 µM (inactive),> 100 µM (inactive),> 100 µM (inactive),> 100 µM (inactive),32.8 µM (inactive),23.6 µM (inactive),> 100 µM (inactive),46.9 µM (inactive),> 100 µM (inactive),> 100 µM (inactive),> 100 µM (inactive),> 100 µM (inactive),> 100 µM (inactive),> 100 µM (inactive),> 100
Clc1ccc(Oc2ccc(/N=C/c3ccc(Cl)cc3Cl)cc2Cl)cc1,25.7 µM (inactive),54.3 µM (inactive),37.7 µM (inactive),21.6 µM (inactive),23.6 µM (inactive),> 100 µM (inactive),> 100 µM (inactive),> 100 µM (inactive),9.2 µM (inactive),> 100 µM (inactive),21.7 µM (inactive),> 100 µM (inactive),36.1 µM (inactive),29.4 µM (inactive),64.6 µM (inactive),25.9 µM (inactive),36.5 µM (inactive),22.4 µM (inactive),40.8 µM (inactive),23.8
Cn1c2ccccc2c(=O)c2cccc(C(=O)NC(CS)C(=O)O)c21 (stereo not given),23.6 µM (inactive),> 100 µM (inactive),> 100 µM (inactive),> 100 µM (inactive),72.4 µM (inactive),> 100 µM (inactive),> 100 µM (inactive),> 100 µM (inactive),< 0.01 µM (active),40.1 µM (inactive),63.4 µM (inactive),> 100 µM (inactive),> 100 µM (inactive),> 100 µM (inactive),> 100 µM (inactive),> 100 µM (inactive),32.8 µM (inactive),81.1 µM (inactive),> 100 µM (inactive),> 100
Cc1ccc(S(=O)(=O)N2CCCC2C(=O)O[C@H]2CC[C@H]3CC=C[C@H]32)cc1 (stereo not given in full),24.5 µM (inactive),45.4 µM (inactive),97.3 µM (inactive),29.9 µM (inactive),> 74.6 µM (inactive),18.7 µM (inactive),> 100 µM (inactive),> 10 µM (inactive),> 10 µM (inactive),24.7 µM (inactive),7.89 µM (inactive),67.6 µM (inactive),19.1 µM (inactive),38.7 µM (inactive),> 10 µM (inactive),41.4 µM (inactive),> 100 µM (inactive),18.9 µM (inactive),35.6 µM (inactive),> 10
